Assay results taken from article PMC3772825, “Development of Novel ^123I-Labeled Pyridyl Benzofuran Derivatives for SPECT Imaging of β-Amyloid Plaques in Alzheimer’s Disease” (PLoS ONE, 2013).
Read-outs that look alike come from different tables or passages of the source. One block for each compound: values may come before it.

Key:
Aβ plaques [1] = assay: In vitro autoradiography using human AD brain sections; format: binding; details: postmortem human AD brain sections, 1 h at room temperature
Procedure: Postmortem brain tissues from an anonymous autopsy-confirmed case of AD (person) were obtained from the Graduate School of Medicine, Kyoto University. Six-micrometer-thick serial sections of paraffin-embedded blocks were used for in vitro autoradiography. The sections were incubated with ^125I-labeled tracers (444 kBq/50 µL) for 1 h at room temperature, then dipped in saturated Li2CO3 in 40% EtOH (two 2-min washes), washed with 40% EtOH (one 2-min wash), and rinsed with water for 30 s. After drying, the ^125I-labeled sections were exposed to a BAS imaging plate (Fuji Film) overnight. Autoradiographic images were obtained using a BAS5000 scanner system (Fuji Film). After autoradiographic examination, the same sections were immunostained using an amyloid β-protein immunohistochemical staining kit (Wako Pure Chemical Industries, Ltd.).

[2] = Biodistribution in normal mice; format: in vivo, ddY mice; details: for time of peak brain uptake: postinjection
Procedure: While under anesthesia with 2% isoflurane, ddY mice were injected directly into a tail vein with 100 µL of 10% EtOH containing ^125I-labeled pyridyl benzofuran derivatives (37 kBq). The mice (male, n = 5 for each time point) were sacrificed at 2, 10, 30, and 60 min postinjection. The organs of interest were removed and weighed, and radioactivity was measured with an automatic gamma counter (COBRAII; Packard). Percentage dose per organ was calculated by comparing the tissue counts to suitably diluted aliquots of the injected material. The %dose/g of samples was calculated by comparing the sample counts with the count of the diluted initial dose.

Aβ(1–42) aggregates = molecular target: T1, Aβ(1–42) aggregates (Homo sapiens, UniProt P05067); assay: In vitro binding assay with Aβ(1–42) aggregates, competition with [125I]IMPY; details: mean ± SEM of three independent determinations; Cheng-Prusoff
T1 construct: Aβ(1–42) was purchased from the Peptide Institute (Osaka, Japan); purchased Peptide Institute (Osaka, Japan)
Procedure: Aggregation was carried out by gently dissolving the peptide (0.25 mg/mL) in a buffer solution (pH 7.4) containing 10 mM sodium phosphate and 1 mM EDTA. […] The mixture was then filtered through Whatman GF/B filters using a Brandel M-24 cell harvester, and the radioactivity of the filters containing the bound ^125I ligand was measured in a γ counter. Values for the half-maximal inhibitory concentration (IC50) were determined from displacement curves of three independent experiments using GraphPad Prism 5.0, and those for the inhibition constant (Ki) were calculated using the Cheng-Prusoff equation [26]: […]

Aβ plaques [3] = molecular target: T2, Aβ plaques (Homo sapiens, UniProt P05067); assay: Ex vivo autoradiography of transgenic mouse brain; details: brains of Tg2576 mice after SPECT/CT; not in the wild-type control
Excerpt: The animals were killed by decapitation after the SPECT analysis. Brains were immediately removed and frozen in a dry ice/hexane bath. Sections of 20 µm were cut and exposed to a BAS imaging plate (Fuji Film, Tokyo, Japan) overnight. Ex vivo film autoradiograms were thus obtained. After autoradiographic examination, the same sections were stained by thioflavin-S to confirm the presence of Aβ plaques. For staining with thioflavin-S, sections were immersed in a 0.125% thioflavin-S solution containing 50% EtOH for 5 min and washed in 50% EtOH. After drying, the sections were examined using a microscope (Eclipse 80i; Nikon) equipped with a B-2A filter set (excitation, 450–490 nm; diachronic mirror, 505 nm; long-pass filter, 520 nm).

[4] = In vitro stability in mouse plasma; format: in vitro ADME; details: incubation 1 h at 37°C, RP-HPLC
Procedure: [^125I]8 (11 kBq, […]) was added to the mouse plasma ([…]), and the plasma samples were incubated at 37°C for 1 h. After incubation, plasma samples were mixed with equal volumes of acetonitrile followed by centrifugation at 4,500 rpm for 10 min to remove the denatured proteins. The supernatant was filtrated using a 0.45 µm filter (Millipore; Billerica, MA, USA). Then, the filtrate was analyzed by RP-HPLC.

Aβ plaques [5] = molecular target: T2, Aβ plaques; assay: Small-animal SPECT/CT in Tg2576 and wild-type mice; format: in vivo, Tg2576 transgenic mice; details: average ± SD
Procedure: Dynamic SPECT scans were performed on a dedicated small-animal SPECT scanner (FX3300, Gamma Medica-Ideas). Tg2576 transgenic mice (28 months, female, n = 3) and wild-type mice (28 months, female, n = 3) were used as an Alzheimer’s model and an age-matched control, respectively. Briefly, the animals were initially anesthetized with 2% isoflurane. When fully anesthetized, an animal was placed on the scanner bed, with a nose cone used to maintain anesthesia with 2% isoflurane throughout the experiment. [^123I]8 (20.5–26.5 MBq) in 10% aqueous EtOH solution containing 0.1% Tween80 was injected into a tail vein. Dynamic data were acquired over a period of 60 min after the injection, followed by the acquisition of CT data over a period of 5 min. The SPECT data were reconstructed using a 3-dimensional ordered subsets expectation maximization (3D OSEM) algorithm (5 iteration, 8 subsets). The SPECT scan time was sorted by a 30-s time frame in each 1-min interval (total, 60 frames for a total scan time of 60 min). […] For statistical analyses, regions of interest (ROIs) were manually placed over the frontal cortex (FR) and cerebellum (CE) on the summed SPECT images of [^123I]8 in Tg2576 (n = 3) and wild-type (n = 3) mice. Identification of anatomical structures was guided by the stereotaxic mouse brain atlas. […]

[6] = In vivo stability in normal mice (intact form in plasma by RP-HPLC); design: species or system ddY mice; details: 30 min postinjection, i.v.
Procedure: [^125I]8 (0.11 MBq, 100 µL) was injected into the tail vein of ddY mice. The mice were sacrificed at 2, 10, and 30 min after the injection (male, n = 3 for each time point). The blood samples were centrifuged at 3,500 rpm for 10 min to separate plasma. Plasma samples were mixed with equal volumes of acetonitrile followed by centrifugation at 4,500 rpm for 10 min to remove the denatured proteins. The supernatant was filtrated using 0.45 µm filter (Millipore; Billerica, MA, USA). Then, the filtrate was analyzed by RP-HPLC.

[7] = design: method as in PMID 17210465; details: ref [31]; cited from earlier work

T1 sequence (P05067 672-713 limits assumed): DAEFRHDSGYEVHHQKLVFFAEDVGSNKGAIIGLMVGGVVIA
T2 sequence (P05067 672-711 limits assumed): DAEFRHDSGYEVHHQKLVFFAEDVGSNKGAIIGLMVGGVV

time of peak brain uptake ([2]; i.v.): 10 min | brain2min/brain60 min ratio ([2]; washout from the brain): 1.30 | Ki (Aβ(1–42) aggregates): 10.3 ± 1.48 nM
SMILES: Nc1ccc(-c2cc3cc(I)ccc3o2)cn1 [Compound 7, 5-(5-Iodobenzofuran-2-yl)pyridin-2-amine]
in vitro autoradiography of AD brain sections (Aβ plaques [1]): nonspecific binding in white matter

time of peak brain uptake ([2]; i.v.): 10 min | Ki (Aβ(1–42) aggregates): 2.36 ± 0.53 nM
SMILES: CN(C)c1ccc(-c2cc3cc(I)ccc3o2)cn1 [Compound 9, 5-(5-Iodobenzofuran-2-yl)-N,N-dimethylpyridin-2-amine]

brain radioactivity at 60 min postinjection ([2]; i.v., 60 min): 1.30 %ID/g | time of peak brain uptake ([2]; i.v.): 2 min | ex vivo autoradiography, labeling of Aβ plaques (Aβ plaques [3]): extensive labeling of Aβ plaques | radioactivity existing as intact form in mouse plasma [4]: 77.4% | mean FR/CE ratio (frontal cortex to cerebellum), SPECT (Aβ plaques [5]; Tg2576 mice (n = 3)): 1.34±0.07 | mean FR/CE ratio (frontal cortex to cerebellum), SPECT (Aβ plaques [5]; wild-type mice (n = 3)): 1.01±0.03 | Ki (Aβ(1–42) aggregates): 2.94 ± 0.22 nM | percent of the intact form in plasma after injection [6]: 20.7%
SMILES: CNc1ccc(-c2cc3cc(I)ccc3o2)cn1 [Compound 8, 5-(5-Iodobenzofuran-2-yl)-N-methylpyridin-2-amine]

SMILES: CNc1ccc(/C=C/c2ccc(OCCOCCOCC[18F])nc2)cc1 [[^18F]AV-45, (E)-4-(2-(6-(2-(2-(2-[^18F]fluoroethoxy)ethoxy)ethoxy)pyridin-3-yl)vinyl)-N-methylaniline]
brain2min/brain60 min ratio [7]: 3.8
